Laboratory results reported in ChEMBL document CHEMBL1649466, “High-throughput screening identifies novel inhibitors of the acetyltransferase activity of Escherichia coli GlmU” (Antimicrob Agents Chemother, 2009).

How the values were obtained:
[1] = target: Bifunctional protein GlmU (Escherichia coli (strain K12)) (UniProt P0ACC7); assay: Competitive inhibition of Acetyltransferase activity of Escherichia coli BL21(DE3) GlmU in presence of AcCoA
[2] = target: Bifunctional protein GlmU (Escherichia coli (strain K12)) (UniProt P0ACC7); assay: Uncompetitive inhibition of Acetyltransferase activity of Escherichia coli BL21(DE3) GlmU in presence of GlcN-1P
[3] = target: Bifunctional protein GlmU (Escherichia coli (strain K12)) (UniProt P0ACC7); assay: Uncompetitive inhibition of Acetyltransferase activity of Escherichia coli BL21(DE3) GlmU in presence of AcCoA

Chain of Bifunctional protein GlmU (Escherichia coli (strain K12)) (P0ACC7 whole entry, looked up): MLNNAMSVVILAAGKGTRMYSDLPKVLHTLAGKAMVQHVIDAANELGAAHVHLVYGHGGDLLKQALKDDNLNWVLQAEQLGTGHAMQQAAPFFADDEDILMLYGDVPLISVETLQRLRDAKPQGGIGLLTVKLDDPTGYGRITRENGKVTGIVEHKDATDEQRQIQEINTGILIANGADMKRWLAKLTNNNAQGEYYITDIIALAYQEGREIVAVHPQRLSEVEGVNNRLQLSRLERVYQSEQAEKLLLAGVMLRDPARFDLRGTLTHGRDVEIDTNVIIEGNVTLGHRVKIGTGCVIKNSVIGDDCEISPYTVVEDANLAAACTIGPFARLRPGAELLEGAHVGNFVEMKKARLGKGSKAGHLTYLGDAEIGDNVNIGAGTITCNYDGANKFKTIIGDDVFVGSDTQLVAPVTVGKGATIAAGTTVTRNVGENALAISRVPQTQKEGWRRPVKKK

Row | Compound | Kic [1] | Kiuc [2] | Kiuc [3]
1 | Nc1ccc(Nc2ccc(N)cc2S(=O)(=O)O)cc1 | 17.2 nM | 189 nM | 
2 | O=S(=O)(Nc1ccc(S(=O)(=O)c2ccc(-c3ccc(S(=O)(=O)c4ccc(NS(=O)(=O)c5ccc(Cl)cc5)c(Cl)c4)cc3)cc2)cc1Cl)c1ccc(Cl)cc1 | 404 nM | 1.11 ×10³ nM | 
3 | O=C(CSc1nnc(SCC(=O)NCCSCc2ccco2)s1)NCCSCc1ccco1 | 22.8 nM |  | 101 nM
